The values that follow come from patent US9493540B2, “Ecdysone receptor/invertebrate retinoid X receptor-based inducible gene expression system” (Intrexon Corporation, priority 2001, dated 2016).

Format in all cases: cell-based, Choristoneura fumiferana
Data set [1] has as its system GAL4:CfEcR-DEF/VP16:LmUSP-EF. Kind of data set: Luciferase reporter gene induction in stably transfected CHO cells (pFRLuc). The note with it: stable clone 1A2, CHO cells, 0, 1, 5, or 25 μM ligand, 48 hours, maximum fold induction. The source says:
This Example describes the construction of host cells comprising the EcR/invertebrate RXR-based gene expression modulation system according to the invention. To make stable cells expressing GAL4:CfEcR-DEF/VP16:LmUSP-EF (switch 1.18, prepared as described in Example 1), Applicants transfected the gene expression cassettes encoding the hybrid GAL4:CfEcR-DEF and VP16:LmUSP-EF polypeptides into Chinese hamster ovary CHO cells comprising a stably transfected reporter plasmid pFRLuc. […] The cells were harvested and reporter activity was assayed.
The transfected CHO cells were grown in the presence of 0, 1, 5, or 25 μM PonA steroid ligand or GS™-E non-steroid ligand for 48 hours. The cells were harvested, lysed and the reporter activity was measured. Total fly luciferase relative light units (RLU) are presented. The numbers on the top of the bars correspond to the maximum fold induction for each treatment. Bulk populations of cells were selected for resistance to the antibiotic neomycin (VP16:LmUSP/VP16:RXR constructs have the neomycin resistance gene incorporated). Several clones from each population were isolated by end point dilution. Three clones of stably transfected GAL4:CfEcR-DEF/VP16:LmUSP-EF cells were analyzed (see FIG. 10, clone 1A2; the data related to the two other clones are not shown).

Data set [2] relates to CfEcR/LmUSP-based switch. Kind of data set: Luciferase reporter induction by two-hybrid switches transfected into NIH3T3 cells. The note with it: non-steroid compared with steroid PonA, 0, 1, 5 or 25 μM, 48 hours. The method, then: (§1) Transfections: DNAs corresponding to the various switch constructs outlined in Example 1, specifically switches 1.1 through 1.8, were transfected into mouse NIH3T3 cells (ATCC) as follows. […] For 12-well plates, 4 μl of Superfect™ was mixed with 100 μl of growth medium. […] The cells were harvested and reporter activity was assayed. […] Ligands: The steroidal ligand Ponasterone A (PonA) was purchased from Sigma Chemical Company. […] Reporter Assays: Cells were harvested 48 hours after adding ligands. […] Twenty μl of lysate were assayed. […] In addition, LmUSP worked better than vertebrate RXR as a CfEcR partner. In particular, both the sensitivity, i.e. the concentration of ligand required for transactivation, and the magnitude of transactivation were increased with LmUSP compared to vertebrate RXR. […]
Briefly, full-length EcR and truncated EcRs, created by a truncation mutation at the junctions of A/B, C, D, E and F domains and fused to a GAL4 DNA binding domain encoding polynucleotide (SEQ ID NO: 33) as described in Example 1 above. […] The cells were harvested, lysed and luciferase reporter activity was measured in the cell lysates. […] The analysis was performed in triplicate and mean luciferase counts [total relative light units (RLU)] were determined as described above.

Data set [3] concerns GAL4CfEcR-DEF/VP16LmUSP-EF (switch 1.18). Kind of data set: Effect of a second ligand on transactivation of the gene switch with pFRLuc in NIH3T3 cells. Conditions: non-steroid ligand 1 μM or less, absence of 9-Cis-retinoic acid, 48 hours. The method, then:
as §1
In particular, Applicants have determined the effect of 9-cis-retinoic acid on the transactivation potential of the GAL4CfEcR-DEF/VP16LmUSP-EF (switch 1.18) gene switch along with pFRLuc in NIH3T3 cells in the presence of non-steroid (GSE) for 48 hours.
Briefly, GAL4CfEcR-DEF, pFRLuc and VP16LmUSP-EF were transfected into NIH3T3 cells and the transfected cells were treated with 0, 0.04, 0.2, 1, 5 and 25 μM non-steroidal ligand (GSE) and 0, 1, 5 and 25 μM 9-Cis-retinoic acid (Sigma Chemical Company). The reporter activity was measured at 48 hours after adding ligands.

In data set [1], `CC(C)CC[C@@H](O)[C@](C)(O)[C@H]1CC[C@@]2(O)C3=CC(=O)[C@@H]4C[C@@H](O)[C@@H](O)C[C@]4(C)[C@H]3CC[C@]12C` [PonA, Ponasterone A] returned a fold induction of 42 fold.

`CCc1c(OC)cccc1C(=O)NN(C(=O)c1cc(C)cc(C)c1)C(C)(C)C` [non-steroidal ligand, N-(2-ethyl-3-methoxybenzoyl)-N′-(3,5-dimethylbenzoyl)-N′-t-butylhydrazine] showed a fold induction in data set [1] of 162 fold. The “sensitivity of the switch to ligand” value in data set [2] was “more sensitive”. For the same compound, in data set [3], the “induction of reporter activity” value is given as “very little induction”.

The term fold induction denotes the ratio of treated to control signal. The low end stands for little rise in signal, the high end for a large rise in signal.
